Assay results reported in patent publication EP0430025A2, “Xanthine compound, method for preparing thereof, and a pharmaceutical composition comprising the same” (HOKURIKU PHARMACEUTICAL CO., LTD., priority 1989, dated 1991).

How the values were obtained:
[1] = tested on: isolated guinea-pig trachea; experiment: Relaxation activity in the isolated guinea-pig trachea (resting tonus, organ bath); conditions: for EC50: Cavia porcellus, 50% of maximal relaxation (10⁻⁶M isoproterenol), resting tonus, cumulative addition, 37°C, read-out: relaxation activity in the isolated guinea-pig trachea ED₅₀; for relative effectiveness of the compounds to reference A: guinea-pig trachea ED₅₀ relative to reference compound A (theophylline) = 1
Protocol: Male Hartley guinea-pigs weighing about 500 g were sacrificed and the trachea were removed. The tracheal chain strips were made and the preparations were mounted vertically in an organ bath containing Locke-Ringer solution. The bath medium was maintained at 37°C and was equilibrated with a gas mixture consisting of 95% O₂ and 5% CO₂. Relaxation activities of the test compounds on the resting tonus of the preparations were recorded isotonically. The test compounds were added cumulatively to the bath. ED₅₀ values representing the amount of the compound tested which produces 50% relaxations of the maximal relaxations (10⁻⁶M isoproterenol) were calculated on the basis of the results obtained above.

[2] = tested on: isolated guinea-pig atria; experiment: Chronotropic activity in the isolated guinea-pig atrium (spontaneous beating rate of right atrium); conditions: 15% increase of spontaneous beating rate of right atrium; cumulative addition; 30°C
Protocol: Male Hartley guinea-pig weighing about 500 g was sacrificed and the right atrium was removed. The atrium was mounted vertically in an organ bath containing Krebs-Henseleit solution. The bath medium was maintained at 30°C and was equilibrated with a gas mixture consisting of 95% 0₂ and 5% CO₂. A restintion of 0.5 g was applied. The spontaneous beating rates for the right atrium were recorded by using a heart rate counter. The test compounds were added cumulatively to the bath. ED₁₅ values representing the amount of the compound which produced 15% increases of the spontaneous beating rates for the right atria were caluculated on the basis of the results obtained.

[3] = tested on: isolated dog mesenteric artery; experiment: Relaxation activity in the isolated dog mesenteric artery (pre-contracted with prostaglandin F2α); conditions: for EC50: Canis lupus familiaris, 50% of maximal relaxation (10⁻⁴M papaverine), pre-contracted with prostaglandin F₂α 3 × 10⁻⁶ M, 37°C, read-out: relaxation activity in the isolated dog mesenteric artery ED₅₀; for relative effectiveness of the compounds to reference B: dog mesenteric artery ED₅₀ relative to reference compound B (propentofylline) = 1
Protocol: The mesenteric arteries were isolated from mongrel dogs of either sex weighing about 10kg. Each helical strip (2 mm in width and 20 mm in length) was mounted vertically in an organ bath containing Krebs-Henseleit solution. The bath medium was maintained at 37 °C and was equilibrated with a gas mixture consisting of 95% O₂ and 5% […]. A resting tension of 1.0 g was applied and the response was recorded isometrically. The preparations were pre-contracted with prostaglandin F₂ α (3 × 10⁻⁶ M) and the smooth muscle relaxations induced by the test compounds were recorded. The test compounds were added cumulatively to the bath. ED₅₀ values representing the amount of the compound which produces 50% relaxations of the maximal relaxations (10 ⁻⁴M papaverine) were caluculated on the basis of the results obtained above.

[4] = tested on: complete cerebral ischemia in mice; experiment: Protective effect on complete cerebral ischemia in mice (gasping duration after decapitation); format: in vivo; conditions: 50 mg/kg, p.o., 30 minutes before decapitation; male ddY mice
Protocol: Male ddY mice weighing about 25 g were used. Complete cerebral ischemia was produced by the amputation of the cervix between the medulla oblongata and the spinal cord. The time between decapitation and the last gasp was recorded as gasping duration. Test compounds were suspended with 0.5% carboxymethylcellulose except propentofylline which was dissolved in distilled H₂O, and then administered orally 30 minutes before the decapitation. The gasping duration was evaluated at the dose of 50 mg/kg.

Row | SMILES | EC50 [1] [µM] | chronotropic activity in the isolated guinea-pig atria ED₁₅ [2] [× 10⁻⁵ M] | EC50 [3] [µM] | relative effectiveness of the compounds to reference A [1] | relative effectiveness of the compounds to reference B [3] | protective effect on complete cerebral iscehemia in mice gasping duration [4] [%]
1 | Cn1c(=O)c2[nH]cnc2n(C)c1=O [Reference compound A, theophylline, reference compound] | 28 | 7.6 | – | 1 | – | –
2 | Cn1cnc2c1c(=O)n(CCCCC1(C)OCCO1)c(=O)n2C1CC1 [Example 38, 3-Cyclopropyl-3,7-dihydro7-methyl-1-[4-(2-methyl-1,3-dioxolan-2-yl)butyl]-1H-purine-2,6-dione] | – | > 10 | – | – | – | –
3 | CCCCn1c(=O)c2c(ncn2CC2(C)OCCO2)n(C2CC2)c1=O [Example 40, 1-n-Butyl-3-cyclopropyl-3,7-dihydro-7-[(2-methyl-1,3-dioxolan-2-yl)methyl]-1H-purine-2,6-dione] | 16 | > 10 | – | 1.8 | – | –
4 | CCCCCCn1c(=O)c2c(ncn2CC(C)=O)n(C2CC2)c1=O [Example 34, 3-Cyclopropyl-1-n-hexyl-3,7-dihydro-7-(2-oxopropyl)-1H-purine-2,6-dione] | 6 | > 10 | 0.64 | 4.7 | 59 | –
5 | CCCCCCn1cnc2c1c(=O)n(CCCCC(C)=O)c(=O)n2C1CC1 [Example 17, 3-Cyclopropyl-7-n-hexyl-3,7-dihydro-1-(5-oxohexyl)-1H-purine-2,6-dione] | 11 | > 10 | 18 | 2.5 | 2.1 | 106.8
6 | CCn1c(=O)c2c(ncn2CC(C)=O)n(C2CC2)c1=O [Example 26, 3-Cyclopropyl-1-ethyl-3,7-dihydro-7-(2-oxopropyl)-1H-purine-2,6-dione] | 14 | – | 10 | 2.0 | 3.8 | –
7 | CC(=O)Cn1c(=O)c2c(ncn2C)n(C2CC2)c1=O [Example 3, 3-Cyclopropyl-3,7-dihydro-7-methyl-1-(2-oxopropyl)-1H-purine-2,6-dione] | – | > 10 | – | – | – | –
8 | CCCCn1c(=O)c2c(ncn2CC(C)=O)n(C2CC2)c1=O [Example 30, 1-n-Butyl-3-cyclopropyl-3,7-dihydro-7-(2-oxopropyl)-1H-purine-2,6-dione] | 1.5 | > 10 | 0.56 | 19 | 68 | –
9 | CCCn1cnc2c1c(=O)n(CCCCC(C)=O)c(=O)n2C [Reference compound B, propentofylline, reference compound] | – | 5.1 | 38 | – | 1 | 106.4

Second part, led by results:

Row | EC50 [1] [µM] | chronotropic activity in the isolated guinea-pig atria ED₁₅ [2] [× 10⁻⁵ M] | EC50 [3] [µM] | SMILES | relative effectiveness of the compounds to reference A [1] | relative effectiveness of the compounds to reference B [3] | protective effect on complete cerebral iscehemia in mice gasping duration [4] [%]
10 | – | > 10 | – | CC(=O)CCCCn1cnc2c1c(=O)n(C)c(=O)n2C1CC1 [Example 25, 3-Cyclopropyl-3,7-dihydro-1-methyl-7-(5-oxohexyl)-1H-purine-2,6-dione] | – | – | –
11 | 18 | > 10 | 36 | CCCCn1cnc2c1c(=O)n(CCCCC(C)=O)c(=O)n2C1CC1 [Example 15, 7-n-Butyl-3-cyclopropyl-3,7-dihydro-1-(5-oxohexyl)-1H-purine-2,6-dione] | 1.6 | 1.1 | 112.3
12 | 23 | > 10 | – | CCCCCn1cnc2c1c(=O)n(CCCCC(C)=O)c(=O)n2C1CC1 [Example 16, 3-Cyclopropyl-3,7-dihydro-1-(5-oxohexyl)-7-n-pentyl-1H-purine-2,6-dione] | 1.2 | – | 107.8
13 | – | > 10 | 15 | CC(=O)CCCCn1c(=O)c2c(ncn2C)n(C2CC2)c1=O [Example 6, 3-Cyclopropyl-3,7-dihydro-7-methyl-1-(5-oxohexyl)-1H-purine-2,6-dione] | – | 2.5 | –
